Measured values reported in patent US20110306623A1, “NOVEL COMPOUNDS COMPRISING A 3-(5-ALKOXYPYRIMIDIN-2-YL) PYRIMIDIN-4(3H)-ONE STRUCTURE AND DRUGS THAT COMPRISE SAME” (KOWA COMPANY, LTD., priority 2009, published 2011).

Columns and labels:
[1] = tested on: angiotensin II-induced blood pressure increase; assay: Inhibitory activity on angiotensin II-induced blood pressure increase; format: in vivo; details: male SD rat, FIG. 1
Method: Inhibitory Activity on Angiotensin II-Induced Blood Pressure Increase
The in vivo angiotensin II antagonist activity of the Compound a and the Compound B was evaluated by following, as an index, the blood pressure increase induced by intravenous injection of angiotensin II.
A male SD rat (10 to 12-week old) was anesthetized with pentobarbital, and a cannular for measuring blood pressure was inserted into the right femoral artery while a cannular for injecting angiotensin II was inserted into the right jugular vein, the cannulars were then fixed on the back side of the neck as exposed.
One day after the surgery, the rat was subjected to the test under unanaesthetized, unstrained, and unfasted condition. The artery cannular was connected to a blood pressure transducer, and the blood pressure and heart rate were continuously recorded on a polygraph with an aid of an amplifier. Once the blood pressure and heart rate are stabilized, angiotensin II (0.1 nmol/kg) was administered via the vein cannular. The angiotensin II was repeatedly administered until a stable hypertensive response is obtained. After that, the Compound a (1 mg/kg or 3 mg/kg) or the Compound B (3 mg/kg) was orally administered, and the hypertensive response induced by angiotensin II was observed over time until 24 hours after the administration. […]

[2] = biological target: T1, human PPAR 2 (Homo sapiens, UniProt P37231); assay: PPAR activating activity, Gal4-PPAR chimera luciferase transfection assay using COS7 cells; format: cell-based; details: relative to Rosiglitazone
T1 construct: the amino acids 182 to 505 of human PPAR 2; expressed in transfected cells; host or cells: COS7 cells
T1 sequence (P37231 182-505): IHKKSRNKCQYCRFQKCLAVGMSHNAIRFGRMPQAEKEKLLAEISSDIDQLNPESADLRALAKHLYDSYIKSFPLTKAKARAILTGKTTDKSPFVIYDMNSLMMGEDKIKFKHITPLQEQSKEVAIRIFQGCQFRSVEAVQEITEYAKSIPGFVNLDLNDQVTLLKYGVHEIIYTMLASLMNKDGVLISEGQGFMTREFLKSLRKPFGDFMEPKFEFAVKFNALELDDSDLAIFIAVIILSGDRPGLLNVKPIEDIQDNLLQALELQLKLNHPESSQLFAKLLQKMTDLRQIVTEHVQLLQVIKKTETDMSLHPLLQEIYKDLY
Method: PPAR Activating Activity The agonist activity of the Compound a and the Compound b on PPAR was measured based on the transfection assay using COS7 cells (DS Pharma Biomedical Co., Ltd., Osaka, Japan), which are the cell line derived from the kidney of the African green monkey. COS7 cells were cultured under 5% CO2 concentration, and DMEM medium containing 10% fetal bovine serum, glutamic acid, and antibiotics was used as a medium. As an expression vector, a chimera in which DNA binding domain of Gal4 which is a yeast transcription factor, and ligand binding domain of human PPAR 2 are fused, i.e., a fused product between the amino acids 1 to 147 of Gal4 transcription factor and the amino acids 182 to 505 of human PPAR 2, was used. Furthermore, as a reporter vector, a firefly luciferase containing five copies of Gal4 recognition sequence in the promoter region was used. Plasmid transfection of the cells was performed according to a method which uses jetPEI (trade name, manufactured by Funakoshi Co., Ltd., Tokyo, Japan). […] After that, the luciferase activity and -galactosidase activity in the cell lysis solution were measured. […] The percentage of the luciferase activity of the Compound a or the Compound b (1 to 30 mol/L) was calculated when the luciferase activity of Rosiglitazone (3 to 10 mol/L) is 100% and the luciferase activity in the absence of the Compound a or the Compound b is 0%. […]

CCCCc1nc(C)n(-c2ncc(OC)cn2)c(=O)c1Cc1ccc(-c2ccccc2-c2noc(=O)[nH]2)cc1 [Compound b, 3-{4′-{[6-butyl-3-(5-methoxypyrimidin-2-yl)-2-methylpyrimidin-4(3H)-on-5-yl]methyl}biphenyl-2-yl}-1,2,4-oxadiazol-5(4H)-one]
effect of inhibiting the angiotensin II-induced blood pressure increase, compared with Compound a 3 mg/kg ([1]; oral 3 mg/kg): substantially the same degree as the administration of the Compound a with dosage of 3 mg/kg
inhibitory action on angiotensin II-induced blood pressure increase, 24 hours after the administration ([1]; oral, Compound a 1 or 3 mg/kg, Compound B 3 mg/kg, 24 hours after administration): its effect was almost completely lost 24 hours after the administration
percentage of the luciferase activity (Rosiglitazone = 100%, absence of compound = 0%) [2]: 24%
